Test results as given in patent US20250320190A1, “Novel Inhibitors of Leucine Carboxyl Methyltransferase-1 (LCMT-1) and Methods of Use Thereof” (Temple University-Of The Commonwealth System of Higher …, priority 2024, published 2025).
≈ marks a conversion by molar mass, not a printed value.

How the values were obtained:
Plasma stability = format: in vitro ADME; details: mouse plasma; read-out: Plasma Stability (t1/2)
From the text: (§1) There is no cause for concern at this stage since there are multiple strategies and reagents for enhancing aqueous solubility for animal in vivo studies (Savjani, K. T., A. K. Gajjar and J. K. Savjani, 2012, ISRN Pharm 2012: 195727.). […] While target tissue exposure is dependent on free, unbound fractions in the plasma, plasma protein binding can protect compounds from hepatic metabolism. Thus, in vivo metabolism and excretion are often determined by a balance between these two properties. In vivo half-life is a complicated property impacted upon by multiple factors and is difficult to predict. […] While these numbers are somewhat low for a drug candidate, they are acceptable for proof of concept tool molecules which can be given multiple times per day and at higher doses to saturate metabolism.

MCF7 cells [1] = experiment: Western blots; format: cell-based, human; details: 20 μM, lysates after 2, 4, 6, 8 and 12 hours
Protocol: (§2) MCF7, MDA-MB-231 and Rosi cells were treated with Compound 1 or Compound 2 at a concentration of 20 μM in complete medium, and lysates were harvested after 2, 4, 6, 8 and 12 hours in radioimmunoprecipitation assay buffer containing protease inhibitors (Boster Bio, Pleasanton, California, catalog #AR1182-1) and phosphatase inhibitors (Santa Cruz Biotechnology catalog #sc-45044 and #sc-45045). Protein concentrations were measured with a bicinchoninic acid assay (G-Biosciences, Saint Louis, Missouri). Fifty micrograms of each lysate were used for bis-tris polyacrylamide gel electrophoresis. Resolved lysates were transferred to nitrocellulose membranes. Membranes were blocked with TBS with 5% bovine serum albumin before incubation with primary antibodies.
(§3) Antibodies obtained from Cell Signaling Technology (Danvers Massachusetts) were, anti-PP2Ac (catalog #2038, 1:1,000 dilution), anti-phospho-adenosine monophosphate-activated protein kinase (pAMPKα2 threonine 172, catalog #2535, 1:1,000 dilution). Antibodies obtained from Proteintech (Rosemont, Illinois) include anti-phospho-receptor-interacting serine/threonine protein kinase-1 antibodies (pRIPK1 serine 161 (catalog #66854-1-Ig, 1:1,000 dilution) and pRIPK1 serine 166 (catalog #28252-1-AP, 1:10,000 dilution), anti-mixed lineage kinase domain like pseudokinase (MLKL, catalog #66675-1-Ig, 1:5,000 dilution), anti-AMPKα2, anti-phospho-acetyl-coenzyme A carboxylase (pACC1 serine 79, catalog #29119-1-AP, 1:1,000 dilution), anti-ACC1 (catalog #21923-1-AP, 1:2,000 dilution) and anti-β-actin (catalog #66009-1-Ig, 1:50,000 dilution). The anti-RIPKI antibody was obtained from AbClonal (Woburn, Massachusetts, catalog #A7414, 1:750 dilution). The anti-phospho-MLKL antibody was obtained from R&D Systems (Minneapolis, Minnesota, 1:1,000 dilution). The LCMT-1 antibody was obtained from Origene (Rockville, Maryland, catalog #TA503127S, 1:2,000 dilution). Appropriate IR-dye secondary antibodies were used (Alexa Fluor® 790-conjugated anti-mouse (catalog #115-655-146, 1:50,000 dilution), Alexa Fluor® 680-conjugated anti-mouse (catalog #115-625-146, 1:50,000 dilution), and Alexa Fluor® 680-conjugated anti-rabbit (catalog #115-625-144, 1:50,000 dilution) were obtained from Jackson ImmunoResearch Laboratories (West Grove, Pennsylvania). Band densities were normalized to β-actin, the endogenous control. At least five replicates were used for statistical analyses.

Rosi cells [2] = experiment: Western blots; format: cell-based, human; details: 20 μM, Compound 2 significant at 6 hours
Protocol: as §2, §3

MDA-MB-231 cells [3] = experiment: Western blots; format: cell-based, human; details: 20 μM, Compound 2 significant at 4 hours
Protocol: as §2, §3

Kinetic solubility = format: physicochemical; details: 2% dimethylsulfoxide/PBS, aqueous buffer, kinetic from dmso stock; read-out: Max. Kinetic Solubility
From the text: as §1

Plasma protein binding = format: in vitro ADME; details: read-out: Plasma Protein Binding (bound fraction) (converted)
From the text: as §1

rhLCMT-1 = biological target: T1, rhLCMT-1 (Homo sapiens, UniProt Q9UIC8); experiment: rhLCMT-1 activity assay (dot immunoblot); format: biochemical; details: each inhibitor 50 μM; 20 μM SAM; 37° C. for 30 minutes
T1 construct: purchased SignalChem (Richmond, British Columbia, Canada)
T1 sequence (Q9UIC8 whole entry): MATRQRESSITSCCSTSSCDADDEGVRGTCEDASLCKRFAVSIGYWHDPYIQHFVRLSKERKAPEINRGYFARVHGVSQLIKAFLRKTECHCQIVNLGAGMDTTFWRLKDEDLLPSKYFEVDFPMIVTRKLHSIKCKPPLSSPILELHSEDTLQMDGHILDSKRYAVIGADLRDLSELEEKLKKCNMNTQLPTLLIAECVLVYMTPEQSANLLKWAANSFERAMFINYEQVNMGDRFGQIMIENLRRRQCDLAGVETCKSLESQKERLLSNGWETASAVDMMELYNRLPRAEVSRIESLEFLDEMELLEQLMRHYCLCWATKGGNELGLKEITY
Protocol: Recombinant human LCMT-1 (rhLCMT-1) and rhPP2Ac were obtained from SignalChem (Richmond, British Columbia, Canada). Methyltransferase assays were performed with 100 ng rhLCMT-1 and 91.62 ng rhPP2Ac (2:1 molar ratio) (28) in reaction buffer containing 20 mM Tris (pH 8.0), 50 mM NaCl, 1 mM EDTA. rhLCMT-1 was incubated with Compound 1 (Chemspace, San Jose, California), Compound 2 (Akos Consulting and Solutions, Amtsgericht, Freiburg, Germany) or sinefungin, a SAM analogue, (Active Motif, Carlsbad, California), each at 50 μM final concentration, for 10 minutes at room temperature. rhPP2Ac was added to the reactions with 20 μM (final concentration) SAM (New England Biolabs, Ipswich, Massachusetts, FIG. 9). […] Reactions were incubated at 37° C. for 30 minutes (FIG. 10). Because the inhibitors gave false positive results with the secondary reactions used in colorimetric and bioluminescent methyltansferase assays, LCMT-1 activity was assessed using dot immunoblots. Reactions were applied to nitrocellulose membranes (Cytiva, Marlborough, Massachusetts). […] Membranes were treated with infrared (IR)-dye anti-mouse antibody (Li-Cor, Lincoln, Nebraska, catalog #926-32210, 1:20,000 dilution) and densities were measured with Li-Cor Image Studio (version 5.2) software. rhLCMT-1 inhibition assays were performed three times, each time with five replicates for each condition.

[4] = Liver microsomal stability; format: in vitro ADME
From the text: as §1

HEK-293 cells = experiment: Cytotoxicity assay (calcein-AM); format: cell-based
Protocol: (§4) HS-5, HEK-293, MCF7, MDA-MB-231 and Rosi cells were seeded in 96-well optical bottom tissue culture plates (Corning, New York) at a density of 2.5×10^3 cells/well. After 24 hours, the media were changed to media containing LB-100 (Cayman Chemical Company, Ann Arbor, Michigan) or Compound 2 at various concentrations (50-0.31 μM). Control cells were given fresh media. After 48 hours the media were aspirated and plates were washed with warmed Dulbecco's phosphate-buffered saline (DPBS) with calcium and magnesium (Sigma-Aldrich, catalog #D1283). Cells were stained with 3 μM calcein-AM (AAT Bioquest, Pleasanton, California, catalog #22002) in DPBS for 30 minutes in the dark at 37° C. Plates were immediately read with a Biotek fluorescent plate reader (excitation 485 nm, emission 520 nm). The cytotoxicity assays were performed at least three times, each time with six replicates per condition.

HS-5 cells = experiment: Cytotoxicity assay (calcein-AM); format: cell-based
Protocol: as §4

Rosi cells [5] = experiment: Cytotoxicity assay (calcein-AM); format: cell-based, human
Protocol: as §4, with “After 24 hours, the media were changed to media containing LB-100 (Cayman Chemical Company, Ann Arbor, Michigan) or Compound 2 at various concentrations (50-0.31 μM).” left out

MCF7 cells [6] = experiment: Cell cycle analysis (BrdU flow cytometry); format: cell-based, human; details: 20 μM, 24 hours
Protocol: (§5) MCF7, MDA-MB-231 and Rosi cells were seeded in 6-well tissue culture plates (Celltreat) at a density of 5×10^5 cells per well. After 24 hours, the DMEM was changed to media containing 20 μM LB-100 or Compound 2. Control cells were given fresh media. After 24 hours, cells were labeled with 50 μM bromodeoxyuridine (BrdU, BioGems, Westlake Village, California, catalog #5911439). Cells were lifted with 0.25% trypsin, 2.21 mM ethylenediaminetetraacetic acid (Corning catalog #25-053-CI) after 4 hours and fixed with 70% ethanol overnight at 4° C. Cells were pelleted and cellular DNA was denatured with HCl. After neutralization with 1 M Tris, pH 8.5, cells were labeled with FITC-anti-BrdU (Biolegend, San Diego, California, catalog #364104, 5 μL/100 μL cell suspension) and 7-aminoactinomycin-D (7-AAD, Biolegend, catalog #420404, 1 μL/100 μL cell suspension). Cells were analyzed with a Becton-Dickinson FACSymphony™ flow cytometer. Cell cycle analyses were performed three times.

Rosi cells [7] = experiment: Cell cycle analysis (BrdU flow cytometry); format: cell-based, human; details: 20 μM, 24 hours
Protocol: as §5

MDA-MB-231 cells [8] = experiment: Cell cycle analysis (BrdU flow cytometry); format: cell-based, human; details: 20 μM, 24 hours
Protocol: as §5

MCF7 cells [9] = experiment: Cytotoxicity assay (calcein-AM); format: cell-based, human
Protocol: as §4

MDA-MB-231 cells [10] = experiment: Cytotoxicity assay (calcein-AM); format: cell-based, human; details: Homo sapiens, MDA-MB-231, 48 h, read-out: Log [μM] EC50 (converted)
Protocol: as §4

MCF7 cells [11] = experiment: Colony forming assay; format: cell-based, human; details: 50-3.25 μM, one week
Protocol: (§6) MCF7, MDA-MB-231 and Rosi cells were seeded in 96-well tissue culture plates (Celltreat, Pepperell, Massachusetts) at a density of 90 cells per well (Mayr et al. Int J Mol Sci. 2018; 19(3)). After 24 hours, the media were changed to media containing LB-100 or Compound 2 at various concentrations (50-3.25 μM). Control cells were given fresh media. After one week the media were aspirated and the wells were washed with PBS. Cells were stained with crystal violet solution (0.25 g crystal violet in 20% methanol) for 10 minutes. The wells were washed 6 times with PBS to remove excess crystal violet. Colonies were counted with an ECHO Revolve hybrid microscope at 1.5× magnification. There were ten replicates for each condition.

Rosi cells [12] = experiment: Colony forming assay; format: cell-based, human; details: 50-3.25 μM, one week
Protocol: as §6

MDA-MB-231 cells [13] = experiment: Colony forming assay; format: cell-based, human; details: 50-3.25 μM, one week
Protocol: as §6

Rosi cells [14] = experiment: Annexin V assay; format: cell-based, human; details: 5-20 μM, 48 hours
Protocol: (§7) MCF7, MDA-MB-231 and Rosi cells were treated with LB-100 and Compound 2 at 5-20 μM concentrations. After 48 hours, cells were lifted with Accutase and washed twice with PBS (pH 7.4) with 10% FBS. Cells were resuspended in annexin V binding buffer (10 mM HEPES (pH 7.4), 140 mM NaCl and 2.5 mM CaCl2)) and labeled with FITC-anti-Annexin V and 7-AAD (Biolegend, FITC Annexin V Apoptosis Detection Kit with 7-AAD, catalog #640922). Cell surface annexin V expression was assessed with flow cytometry.

MDA-MB-231 cells [15] = experiment: Annexin V assay; format: cell-based, human; details: 5-20 μM, 48 hours
Protocol: as §7

With `O=C(COc1cccc2ccccc12)Nc1ccccc1O` [Compound 1, N-(2-Hydroxyphenyl)-2-(1-naphthalenyloxy)acetamide] the half-life (Plasma stability) was > 180 min, the PP2Ac methylation (MCF7 cells [1]) was “did not increase PP2Ac methylation” and the PP2Ac methylation (Rosi cells [2]) was “did not increase PP2Ac methylation”. The PP2Ac methylation (MDA-MB-231 cells [3]) was “did not increase PP2Ac methylation”, the solubility kinetic (Kinetic solubility) was 27.1 µM (≈ 7.95 µg/mL) and the fraction unbound (Plasma protein binding) was 0.033. For the same compound, the “methylation of rhPP2Ac by rhLCMT-1” value (rhLCMT-1) was “did not significantly inhibit PP2Ac methylation”, the half-life ([4]; human liver microsomes, read-out: Liver Microsomal Stability (t1/2) Human) was 45.7 min and the half-life ([4]; mouse liver microsomes, read-out: Liver Microsomal Stability (t1/2) Mouse) was 20 min.
For `CN1CCN(C(=O)C2C(C(=O)O)[C@H]3CC[C@@H]2O3)CC1` (some centres unmarked) [LB-100, reference compound], the “concentration at which survival was significantly inhibited” value (HEK-293 cells; HEK-293, 48 hours) was 20 µM, the EC50 (HEK-293 cells; Homo sapiens, HEK293, 48 h, read-out: Log [μM] EC50 (converted)) was 21.4 µM and the EC50 (HS-5 cells; HS5, 48 h, read-out: Log [μM] EC50 (converted)) was 36.3 µM. The “concentration at which cytotoxicity was significant” value (HS-5 cells; human, 48 h) was 20 µM, the EC50 (Rosi cells [5]; Homo sapiens, 48 h, read-out: Log [μM] EC50 (converted)) was 21900 µM and the “concentration at which survival was significantly inhibited” value (Rosi cells [5]; Rosi, 48 hours) was 20 µM. For the same compound, the cell cycle effect (MCF7 cells [6]) was “induced G0/G1 arrest”, the cell cycle effect (Rosi cells [7]) was “induced G2/M-phase arrest” and the cell cycle effect (MDA-MB-231 cells [8]) was “induced G2/M-phase arrest”. The EC50 (MCF7 cells [9]; Homo sapiens, MCF7, 48 h, read-out: Log [μM] EC50 (converted)) was 45.7 µM, the inhibition of survival (MCF7 cells [9]; MCF7, concentrations tested 50-0.31 μM, 48 hours) was “Neither LB-100 nor Compound 2 significantly inhibited survival” and the EC50 (MDA-MB-231 cells [10]) was 6.76 µM. For the same compound, the clonogenic colony formation (MCF7 cells [11]) was “inhibited to a lesser extent”, the clonogenic colony formation (Rosi cells [12]) was “inhibited colony formation” and the clonogenic colony formation (MDA-MB-231 cells [13]) was “inhibited colony formation”. For the same compound, the “apoptosis (cell surface annexin V expression)” value (Rosi cells [14]) was “induced apoptosis” and the “apoptosis (cell surface annexin V expression)” value (MDA-MB-231 cells [15]) was “induced apoptosis”.
